This passage reports inhibition results from patent US8940774B2, “Tris-Quaternary Ammonium Salts and Methods for Modulating Neuronal Nicotinic Acetylcholine Receptors” (University of Kentucky Research Foundation, priority 2005, dated 2015).

In test [1] the target is T1, Rat Striatal Nicotinic Receptors (Rattus norvegicus, UniProt P09483+P12390).
T1 construct: from tissue; host or cells: rat striatal membranes
The test is described as follows: Inhibition of [3H]Nicotine (NIC) binding assay, rat striatal membranes. To be noted: % inhibition at 100 nM concentration of analog, 3 nM [3H]NIC. The method, then: Striata from two rats were dissected, pooled, and homogenized with a Tekmar polytron in 10 vol of ice-cold modified Krebs-HEPES buffer (20 mM HEPES, 118 mM NaCl, 4.8 mM, KCl, 2.5 mM CaCl2, 1.2 mM MgSO4, adjusted to pH 7.5). The homogenates were incubated at 37° C. for 5 minutes and centrifuged at 15,000 g for 20 minutes. The pellet was resuspended in 10 volumes of ice-cold MilliQ water, incubated for 5 minutes at 37° C., and centrifuged at 15,000 g for 20 minutes. The second pellet was then resuspended in 10 volumes of fresh ice-cold 10% Krebs-HEPES buffer, incubated at 37° C., and centrifuged at 15,000 g for 20 minutes. The latter sequence of resuspension, incubation and centrifugation was repeated. The pellet was frozen under fresh 10% Krebs-HEPES buffer and stored at −40° C. until assay. Upon assay, the pellet was resuspended in Krebs-HEPES buffer, incubated at 37° C. for 5 minutes, and centrifuged at 15,000 g for 20 minutes. The final pellet was resuspended in 3.6 mL ice-cold MilliQ water which provided for approximately 200 μg protein per 100 μL aliquot. Competition assays were performed in duplicate in a final volume of 200 μL Krebs-HEPES buffer containing […] Tris buffer (pH 7.5 at 4° C.). Reactions were initiated by addition of 100 μL of membrane suspension to 3 nM [^3H]NIC (50 μL) and one of at least nine concentrations of analog (50 μL). After a 90 minute incubation at 4° C., reactions were terminated by dilution of the samples with 3 mL of ice-cold Krebs-HEPES buffer followed immediately by filtration through Whatman GF/B glass fiber filters (presoaked in 0.5% polyethyleneimine) using a Brandel Cell Harvester. Filters were rinsed three times with 3 mL of ice-cold Krebs-HEPES buffer, transferred to scintillation vials, and 5 mL scintillation cocktail (Research Products international Corp., Mt. Prospect, Ill.) added. Nonspecific binding determined in triplicate was defined as binding in the presence of 10 μM NIC. Binding parameters were determined using the weighted, least squares non-linear regression. The tris-quaternary ammonium salts were evaluated for their ability to displace [^3H]NIC binding from rat striatal membranes.
(§1) Data are % inhibition at 100 nM concentration of analog for at least 1-3 independent experiments. Specific binding in the [^3H]NIC binding assay is calculated at the difference between the total binding of [^3H]NIC and nonspecific binding in the presence of 10 μM cold nicotine. Specific binding for the [^3H]MLA binding assay is calculated as the difference between the total binding of 2.5 nM [^3H]MLA to the receptors alone and its nonspecific binding in the presence of 1 μM cold MLA. Analog-induced inhibition of nicotine-evoked [^3H]DA release is calculated as a percent of that in the absence of analog.

The target of test [2] is T2, α7-type neuronal nicotinic acetylcholine receptors (Rattus norvegicus, UniProt Q05941).
T2 construct: from tissue; host or cells: rat brain membranes (whole brain without cortex, striatum and cerebellum)
T2 sequence (Q05941 23-502): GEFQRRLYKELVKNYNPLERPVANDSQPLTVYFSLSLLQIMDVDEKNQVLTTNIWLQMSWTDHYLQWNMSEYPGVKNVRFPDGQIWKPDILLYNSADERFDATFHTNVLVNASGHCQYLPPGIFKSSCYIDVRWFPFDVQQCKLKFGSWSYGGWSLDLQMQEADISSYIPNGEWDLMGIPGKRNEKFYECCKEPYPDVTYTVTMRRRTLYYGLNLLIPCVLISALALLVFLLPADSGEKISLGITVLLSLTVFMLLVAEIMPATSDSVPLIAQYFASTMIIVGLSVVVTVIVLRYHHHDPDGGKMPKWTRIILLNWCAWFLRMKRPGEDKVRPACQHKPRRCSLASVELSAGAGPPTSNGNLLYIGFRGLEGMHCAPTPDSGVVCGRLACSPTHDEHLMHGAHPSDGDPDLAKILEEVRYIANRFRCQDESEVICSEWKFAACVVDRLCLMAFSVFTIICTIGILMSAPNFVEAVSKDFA
The test is described as follows: Inhibition of [3H]Methyllycaconitine (MLA) binding assay, rat brain membranes. To be noted: % inhibition at 100 nM concentration of analog; rat brain membranes; 2.5 nM [3H]MLA; read-out: Inhibition of [3H]MLA binding. The method, then: Rat brain was dissected into the whole brain tissue without cortex, striatum and cerebellum and was frozen in liquid nitrogen and stored at −70° C. until use. The brain tissue was homogenized with a Tekmar Polytron (setting 40) in 20 volumes of ice-cold hypotonic buffer (2 mM HEPES, 14.4 mM NaCl, 0.15 mM KCl, 0.2 mM CaCl2 and 0.1 mM MgSO4, pH=7.5). The homogenate was incubated at 37° C. for 10 minutes and centrifuged at 25,000 g for 15 minutes at […] The pellet was washed 3 times more by resuspension in 20 volumes of the same buffer and centrifugation at the above parameters. The final pellet was stored at −20° C. under 4.6 mL of the incubation buffer and was suspended just before the incubation with radioligand.
The binding of [^3H]MLA to probe α7-type neuronal nicotinic acetylcholine receptors was measured using a modification of the method of Davies at al., “Characterisation of the binding of [^3H]methyllycaconitine (MLA): a radioligand for labelling α7-type neuronal nicotinic acetylcholine receptors,” Neuropharmacology, 38, 679-690 (1999). [^3H]MLA (25.4 Ci/mmol) was purchased from Tocris Cookson Ltd., Bristol, U.K. Binding was performed in duplicate, in a final volume of 250 μL of the incubation medium, containing 20 mM HEPES, 144 mM NaCl, 1.5 mM KCl, 2 mM CaCl2, 1 mM MgSO4 and 0.05% BSA, pH=7.5. Reaction was initiated by the addition of 100 μL of membrane suspension to the samples containing a desired concentration of test compounds and […] [^3H]MLA (final concentration) and incubated for 2 hours it room temperature. Total binding was measured in the absence of unlabelled ligand, and nonspecific binding was determined by the presence of 1 μM unlabelled MLA. The binding reaction was terminated by dilution of samples with 3 mL of ice-cold incubation buffer followed by immediate filtration through glass fiber filters (S&S, grade #32, presoaked in 0.5% polyethylenimine) using a Brandel harvester system. Filters were rinsed three times with 3 mL of ice-cold buffer, transferred to scintillation vials and 4 mL of scintillation cocktail was added. Protein was measured using the Bradford dye-binding procedure with bovine serum albumin as the standard.
The tris-quaternary ammonium salts were evaluated for their ability to displace [^3H]MLA binding from rat brain membranes.
as §1

For test [3], the system named is NIC-evoked [3H]DA release from rat striatal slices. The test is described as follows: Nicotine-evoked [3H]dopamine release assay, superfused rat striatal slices. The format is cell-based. To be noted: 100 nM analog superfused 60 minutes prior to NIC (10 μM), percent of that in the absence of analog. On the procedure: Rat striatal slices (500 μm thickness, 6-8 mg wet weight) were incubated for 30 minutes in Krebs buffer (118 mM NaCl, 4.7 mM KCl, 1.2 mM MgCl2, 1.0 mM NaH2PO4, 1.3 mM CaCl2, 11.1 mM glucose, 25 mM NaHCO3, 0.11 mM L-ascorbic acid and 0.004 mM disodium EDTA; pH 7.4, and saturated with 95% O2/5% CO2) in a metabolic shaker at 34° C. Slices were rinsed with 15 mL of fresh buffer and incubated for an additional 30 minutes in fresh buffer containing 0.1 μM [^3H]dopamine (DA; 6 slices/3 mL). Subsequently, slices were rinsed with 15 mL of fresh buffer and transferred to a glass superfusion chamber. Slices were superfused (1.0 mL/min) for 60 minutes with Krebs buffer containing nomifensine (10 μM) and pargyline (10 μM) and maintained at 34° C., pH 7.4 with continual aeration (95% O2/5% CO2). Two five minute samples (5 mL each) were collected to determine basal outflow of [^3H]DA. Analogs were added to the superfusion buffer after the collection of the second sample and remained in the buffer until 12 consecutive five minute samples were collected. Subsequently, S-(−)-nicotine (10 μM) was added to the buffer and an additional 12 consecutive five minute samples were collected. At the end of the experiment, each slice was solubilized and the [^3H] content of the tissue determined.
Radioactivity in the superfusate and tissue samples were determined by liquid scintillation spectroscopy. Fractional release for tritium collected in each sample was divided by the total tritium present at the time of sample collection and was expressed as a percentage of total tritium. Basal [^3H] outflow was calculated from the average of the tritium collected in the two five-minute samples just before addition of the analog. The sum of the increase in collected tritium resulting from either exposure to the test compound or exposure to S-(−)-nicotine in the absence cod presence of the test compound equaled total [^3H] overflow. [^3H] Overflow was calculated by subtracting the [^3H] outflow during an equivalent period of prestimulation from the values in samples collected during and after drug exposure. Inasmuch as the radiolabelled compounds were not separated and identified, the tritium in the superfusate is referred to as either [^3H] outflow or [^3H] overflow, rather than [^3H]DA. [^3H] Overflow primarily represents [^3H]DA in the presence of nomifesine and pargyline in the superfusion buffer. […]
Analogs were also evaluated for their ability to inhibit NIC evoked [^3H]DA release. In these experiments, the striatal slices were superfused for 60 minutes with 100 nM concentration of the analogs prior to NIC (10 μM) exposure. Antagonist activity was evaluated by comparing the NIC-evoked [^3H] overflow in the absence and presence of the analogs. The relative order of potency of the analogs for inhibition of NIC-evoked [^3H]DA release from rat striatal slices is illustrated in Table 1.
as §1

T1 sequence (P09483 31-630): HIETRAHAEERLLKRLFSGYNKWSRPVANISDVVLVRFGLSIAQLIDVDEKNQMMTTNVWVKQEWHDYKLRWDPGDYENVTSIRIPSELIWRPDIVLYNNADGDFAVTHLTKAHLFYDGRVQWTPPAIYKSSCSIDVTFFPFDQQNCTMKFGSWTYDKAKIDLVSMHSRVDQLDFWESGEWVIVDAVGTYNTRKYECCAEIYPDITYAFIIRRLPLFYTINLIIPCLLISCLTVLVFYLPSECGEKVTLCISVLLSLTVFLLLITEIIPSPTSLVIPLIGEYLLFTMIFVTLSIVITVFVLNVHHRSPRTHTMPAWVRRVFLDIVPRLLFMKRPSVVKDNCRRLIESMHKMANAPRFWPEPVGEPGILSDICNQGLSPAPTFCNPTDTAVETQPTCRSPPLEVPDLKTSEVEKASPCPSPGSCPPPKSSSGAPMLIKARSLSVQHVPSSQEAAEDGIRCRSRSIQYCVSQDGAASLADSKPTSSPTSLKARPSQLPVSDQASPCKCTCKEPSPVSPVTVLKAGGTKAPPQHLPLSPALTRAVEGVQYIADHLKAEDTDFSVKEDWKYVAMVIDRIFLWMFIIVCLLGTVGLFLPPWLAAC
T1 sequence (P12390 25-500): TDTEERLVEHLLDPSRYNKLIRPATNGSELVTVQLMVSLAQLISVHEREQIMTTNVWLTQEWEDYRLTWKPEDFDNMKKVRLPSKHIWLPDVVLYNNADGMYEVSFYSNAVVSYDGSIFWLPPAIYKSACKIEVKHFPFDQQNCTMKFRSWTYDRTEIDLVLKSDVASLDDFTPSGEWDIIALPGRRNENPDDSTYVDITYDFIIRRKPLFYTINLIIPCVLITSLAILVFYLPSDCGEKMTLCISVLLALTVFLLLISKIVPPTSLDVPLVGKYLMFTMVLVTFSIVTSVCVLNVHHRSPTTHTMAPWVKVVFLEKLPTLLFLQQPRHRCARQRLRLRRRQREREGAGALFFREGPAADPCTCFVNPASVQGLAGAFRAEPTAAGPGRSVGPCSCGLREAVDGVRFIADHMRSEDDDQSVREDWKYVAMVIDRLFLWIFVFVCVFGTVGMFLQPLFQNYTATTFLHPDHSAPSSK

Take `C(#Cc1cc(C#CCCC[n+]2cccc3ccccc32)cc(C#CCCC[n+]2cccc3ccccc32)c1)CCC[n+]1cccc2ccccc21` [GZ552A, 1,3,5-tris-[5-(1-quinolinium)-pent-1-ynyl]-benzene tribromide]: the inhibition at 0.1 µM stood at 7 ± 3.8% in test [1], 21 ± 6% in test [2] and 72% in test [3].

As for `Cc1cc[n+](CCCCCc2cc(CCCCC[n+]3ccc(C)c(C)c3)cc(CCCCC[n+]3ccc(C)c(C)c3)c2)cc1C` [GZ557B, 1,3,5-tris-[5-(3,4-lutidinium)-pentyl]-benzene tribromide], the inhibition at 0.1 µM in test [1] worked out at 9.3 ± 4.1%; in test [2] it was 0.2 ± 0.2%; in test [3] it was 50 ± 21%.

Turning to `Cc1cc[n+](CCCCCc2cc(CCCCC[n+]3ccc(C)cc3)cc(CCCCC[n+]3ccc(C)cc3)c2)cc1` [GZ555C, 1,3,5-tris-[5-(4-picolinium)-pentyl]-benzene tribromide], the inhibition at 0.1 µM in test [1] came out at 6 ± 3.4%; in test [2], 0%; in test [3] it was 37 ± 17%.

Regarding `CCCCc1ccc[n+](CCCCCc2cc(CCCCC[n+]3cccc(CCCC)c3)cc(CCCCC[n+]3cccc(CCCC)c3)c2)c1` [GZ558B, 1,3,5-tris-[5-(3-butyl-pyridinium)-pentyl]-benzene tribromide], the values for the inhibition at 0.1 µM in test [1], in test [2] and in test [3] were 6.2 ± 4%, 4.4 ± 3.3% and 68 ± 14%, respectively.

With `c1ccc2c[n+](CCCCCc3cc(CCCCC[n+]4ccc5ccccc5c4)cc(CCCCC[n+]4ccc5ccccc5c4)c3)ccc2c1` [GZ556B, 1,3,5-tris-[5-(2-isoquinolinium)-pentyl]-benzene tribromide], the inhibition at 0.1 µM in test [1] is 8.4 ± 7.6%; in test [2], 2.5 ± 1.5%; in test [3] it was 28 ± 11%.

With `Cc1cc[n+](CCCC#Cc2cc(C#CCCC[n+]3ccc(C)c(C)c3)cc(C#CCCC[n+]3ccc(C)c(C)c3)c2)cc1C` [GZ553B, 1,3,5-tris-[5-(3,4-lutidinium)-pent-1-ynyl]-benzene tribromide], the inhibition at 0.1 µM came out at 4 ± 1.4% in test [1], 1.8 ± 1.8% in test [2] and 0% in test [3].

On to `Cc1cccc[n+]1CCCCCc1cc(CCCCC[n+]2ccccc2C)cc(CCCCC[n+]2ccccc2C)c1` [GZ555B, 1,3,5-tris-[5-(2-picolinium)-pentyl]-benzene tribromide], for which the figures for the inhibition at 0.1 µM in test [1], in test [2] and in test [3] were 8.6 ± 7.2%, 0% and 25%, respectively.

Turning to `C(#Cc1cc(C#CCCC[n+]2ccc3ccccc3c2)cc(C#CCCC[n+]2ccc3ccccc3c2)c1)CCC[n+]1ccc2ccccc2c1` [GZ552B, 1,3,5-tris-[5-(2-isoquinolinium)-pent-1-ynyl]-benzene tribromide], the inhibition at 0.1 µM in test [1] was 9.2 ± 5%; in test [2], 4.5 ± 2.6%; in test [3], 49%.

Turning to `Cc1ccc[n+](CCCCCc2cc(CCCCC[n+]3cccc(C)c3)cc(CCCCC[n+]3cccc(C)c3)c2)c1` [GZ555A, 1,3,5-tris-[5-(3-picolinium)-pentyl]-benzene tribromide], the figures for the inhibition at 0.1 µM in test [1], in test [2] and in test [3] were 14 ± 6.1%, 1.2 ± 1.2% and 42%, respectively.

As to `Cc1cccc[n+]1CCCC#Cc1cc(C#CCCC[n+]2ccccc2C)cc(C#CCCC[n+]2ccccc2C)c1` [GZ554A, 1,3,5-tris-[5-(2-picolinium)-pent-1-ynyl]-benzene tribromide], the inhibition at 0.1 µM in test [1] is 4.5 ± 2%; in test [2], 0%; in test [3], 68%.

For `Cc1ccc[n+](CCCC#Cc2cc(C#CCCC[n+]3cccc(C)c3)cc(C#CCCC[n+]3cccc(C)c3)c2)c1` [GZ550A, 1,3,5-tris-[5-(3-picolinium)-pent-1-ynyl]-benzene tribromide], the inhibition at 0.1 µM in test [1] was determined as 10 ± 1.9%; in test [2] it was 0%; in test [3], 46%.

In the case of `Cc1cc(C)c[n+](CCCCCc2cc(CCCCC[n+]3cc(C)cc(C)c3)cc(CCCCC[n+]3cc(C)cc(C)c3)c2)c1` [GZ557A, 1,3,5-tris-[5-(3,5-lutidinium)-pentyl]-benzene tribromide], the inhibition at 0.1 µM in test [1] worked out at 11 ± 2.9%; in test [2], 6.5 ± 3.6%; in test [3] it was 39 ± 18%.
